Assay results reported in patent US20140329868A1, “METHODS FOR TREATING HYPERTENSION” (TAKEDA PHARMACEUTICALS U.S.A., INC., priority 2005, published 2014).

System: oxonic acid (OA)-induced hyperuricemic model in Sprague-Dawley rats
Experiment: Example 4: micropuncture glomerular hemodynamics and mean arterial pressure under anesthesia in normal and OA-dosed rats
Type: in vivo
Details: for mean arterial blood pressure (effect in words): end of study, FIG. 3
Method: Materials and Methods. To produce hyperuricemia, rats received OA (Sigma, St Louis Mo., USA) 750 mg/kg body weight daily by gastric gavage. To investigate the treatment effect of febuxostat (also referred to herein as “Fx”), the drug was administered in drinking water at 50 mg/L (approximately 5-6 mg/kg/day) four weeks after OA dosing while the respective controls received 5.84 mg/L of NaCl in drinking water (to maintain a salt concentration equivalent to the Febuxostat-containing water). The following four groups (n=10-11) were included in the study: Group 1, normal control rats which received no treatment for eight weeks; Group 2, Normal+Febuxostat rats which received no treatment for four weeks and then were treated with febuxostat for four weeks from Weeks 5 to 8; Group 3, OA rats which received OA for eight weeks; and Group 4, OA+Febuxostat rats which received OA for eight weeks and febuxostat for four weeks from Weeks 5 to 8. Body weight, food and water intakes were measured daily. Systolic blood pressure, obtained in conscious rats by a tail cuff sphygmomanometer, and plasma uric acid were measured in all animals at baseline and at the end of four and eight weeks. A renal micropuncture procedure along with systemic arterial blood pressure monitoring under pentobarbital anesthesia were performed at the end of eight weeks followed by morphologic evaluation of the renal preglomerular microvasculature.
Micropuncture Procedure to Assess Glomerular Hemodynamics. Animals were anesthetized with pentobarbital sodium (30 mg/kg, i.p.) and placed on a thermoregulated table to maintain body temperature at 37° C. Trachea, jugular veins, femoral arteries and the left ureter were catheterized with polyethylene tubing (PE-240, PE-50 and PE-10). The left kidney was exposed, placed in a Lucite holder, sealed with agar and covered with Ringer's solution. Mean arterial pressure (hereinafter “MAP”) was monitored using a pressure transducer (Model p23 db; Gould, San Juan, PR) connected to the catheter in the femoral artery and recorded on a polygraph (Grass Instruments, Quincy, Mass., USA). Blood samples were taken periodically and replaced with blood from a donor rat. Rats were maintained under euvolemic conditions by infusion of 10 mL/kg of body weight of isotonic rat plasma during surgery, followed by an infusion of 25% polyfructosan at 2.2 mL/h (Mutest, Fresenius Kabi, Linz, Austria). After 60 min, five to seven samples of proximal tubular fluid were obtained to determine flow rate and polyfructosan concentrations. Intratubular pressure under free-flow (hereinafter “FF”) and stop-flow (hereinafter “SFP”) conditions and peritubular capillary pressure (hereinafter “Pc”) were measured in other proximal tubules with a servo-null device (Servo Nulling Pressure System; Instrumentation for Physiology and Medicine, San Diego, Calif., USA). Glomerular colloid osmotic pressure was estimated from protein concentrations obtained from blood of the femoral artery (hereinafter “Ca”) and surface efferent arterioles (hereinafter “Ce”). Polyfructosan was measured in plasma and urine samples by the anthrone-based technique of Davidson and Sackner (See, Davidson W D et al., J Lab Clin Med 62:351-356 (1963)). Plasma samples were deproteinated first with trichloroacetic acid. After centrifugation, the supernatant was used for polyfructosan measurement. Polyfructosan concentrations in plasma and urine samples were assessed by addition of anthrone reagent followed by incubation at 45° C. for 50 min and reading in a spectrophotometer set at wavelength of 620 nm. Concentrations were calculated by interpolating the absorbance values using a standard curve (0.01-0.05 mg/mL). Total glomerular filtration rate (hereinafter “GFR”) was calculated using the following formula: GFR=(U×V)/P, where U is the polyfructosan concentration in urine, V is urine flow rate, and P is the polyfructosan concentration in plasma. […]

[1] = Normal + FX rats, end of eight weeks
[2] = OA + Fx rats, end of eight weeks

Cc1nc(-c2ccc(OCC(C)C)c(C#N)c2)sc1C(=O)O [febuxostat, 2-[3-cyano-4-(2-methylpropoxy)phenyl]-4-methylthiazole-5-carboxylic acid]
FF (free flow tubular pressure) [1]: 13.4 ± 0.8 mmHg | GFR (glomerular filtration rate) [1]: 0.9 ± 0.1 mL/min | Kf (ultrafiltration coefficient) [1]: 0.046 ± 0.004 nL/s · mmHg | PGC (glomerular capillary pressure) [1]: 46.3 ± 1.4 mmHg | Pc (peritubular capillary pressure) [1]: 12.5 ± 0.8 mmHg | QA (glomerular plasma flow) [1]: 135.0 ± 11.2 nL/min | SFP (stop flow pressure) [1]: 30.7 ± 0.8 mmHg | SNGFR (single nephron GFR) [1]: 34.6 ± 2.3 nL/min | MAP (mean arterial pressure) (Normal + FX rats, end of eight weeks, under anesthesia): 123 ± 3 mmHg | FF (free flow tubular pressure) [2]: 12.9 ± 0.5 mmHg | GFR (glomerular filtration rate) [2]: 1.0 ± 0.1 mL/min | Kf (ultrafiltration coefficient) [2]: 0.070 ± 0.011 nL/s · mmHg | PGC (glomerular capillary pressure) [2]: 46.5 ± 1.0 mmHg | Pc (peritubular capillary pressure) [2]: 13.2 ± 0.7 mmHg | QA (glomerular plasma flow) [2]: 183.6 ± 21.4 nL/min | SFP (stop flow pressure) [2]: 29.7 ± 1.0 mmHg | SNGFR (single nephron GFR) [2]: 45.7 ± 5.2 nL/min | ultrafiltration coefficient (Kf) compared to the other groups (in words) [2]: numerically, but insignificantly higher | MAP (mean arterial pressure) (OA + Fx rats, end of eight weeks, under anesthesia, listed as Fx): 112 ± 5 mmHg | elevation in glomerular capillary pressure (PGC) and stop flow pressure (effect in words) (OA-treated rats, end of eight weeks): prevented these changes | mean arterial blood pressure (effect in words) (OA-treated rats, intra-arterial cannulation under anesthesia): reduced to the normal range | glomerular hemodynamics (effect in words) (normal rats, end of eight weeks): did not alter glomerular hemodynamics | mean arterial blood pressure (effect in words) (normal rats, under anesthesia): did not alter MAP
